Experiments:
[1] = target: T1, hNLRP3 inflammasome (Homo sapiens, UniProt Q96P20); experiment: Agonistic effect on the expression of IL-1β in THP-1 cells after PMA-induced differentiation (HTRF); type: cell-based; conditions: IL-1β level, PMA-differentiated THP-1 cells, 6 hours
T1 construct: endogenous in cells; host or cells: THP-1 cells, PMA-differentiated
Description: Experimental Example 1: Agonistic Effect of the Compound of the Invention on the Expression of IL-1β in THP-1 Cells after PMA-Induced Differentiation
In this test, a HTRF (homogeneous time-resolved fluorescence) detection method was used to test the effect of the compound of the invention on the level of downstream cytokine IL-1β of NLRP3 to evaluate the agonistic effect of the compound on hNLRP3 inflammasome or hNLRP3 inflammasome pathway at a cellular level.
Reagent: RPMI 1640 (Hyclone); heat-inactivated FBS (fetal bovine serum) (Gibco); PMA (phorbol myristal acetate) (Beyotime)
Kit: IL-1β assay kit (CISIO)
1) THP-1 cells in a logarithmic growth phase were seeded in a T75 culture flask at a density of 5×10^5 cells/well, and cultured in a cell incubator at 37° C., 5% CO2 for 24 hours, and then 1 μM PMA was used to induce THP-1 suspension cells to become adherent macrophages. The medium was RPMI 1640 containing 10% heat-inactivated FBS and 0.05 mM β-mercaptoethanol.
2) The cells were induced and cultured for 24 hours. Then the adherent cells were trypsinized and centrifuged at 1000 rpm for 5 min. The supernatant was removed, and the cells were resuspended to a density of 2×10^6 cells/mL in RPMI 1640 medium containing 2% heat-inactivated FBS. 50 μL/well of cell resuspension was taken and spread on a 96-well plate such that the number of cells in each well was 1×10^5.
3) An appropriate amount of 10 mM DMSO solution of the compound to be tested was taken and diluted to a concentration of 2× test concentration with RPMI 1640 medium containing 2% heat-inactivated FBS. 50 μL/well of the dilution was added to the cells in the 96-well plate, and mixed well. The plate was placed in a cell incubator at 37° C., 5% CO2 for 6 hours. The supernatant was collected, and the level of IL-1β was measured in accordance with the instructions of the IL-1β detection kit.
4) EC50 was fitted by the GraphPad software log(agonist) vs. response—Variable slope four-parameter method.

[2] = target: T2, CYP1A2 (Homo sapiens, UniProt P05177); experiment: CYP enzyme inhibition test, P450-Glo CYP1A2 Screening System; type: in vitro ADME; conditions: for inhibitory effect on CYP1A2: conclusion in words
T2 construct: purchased
T2 sequence (P05177 1-516): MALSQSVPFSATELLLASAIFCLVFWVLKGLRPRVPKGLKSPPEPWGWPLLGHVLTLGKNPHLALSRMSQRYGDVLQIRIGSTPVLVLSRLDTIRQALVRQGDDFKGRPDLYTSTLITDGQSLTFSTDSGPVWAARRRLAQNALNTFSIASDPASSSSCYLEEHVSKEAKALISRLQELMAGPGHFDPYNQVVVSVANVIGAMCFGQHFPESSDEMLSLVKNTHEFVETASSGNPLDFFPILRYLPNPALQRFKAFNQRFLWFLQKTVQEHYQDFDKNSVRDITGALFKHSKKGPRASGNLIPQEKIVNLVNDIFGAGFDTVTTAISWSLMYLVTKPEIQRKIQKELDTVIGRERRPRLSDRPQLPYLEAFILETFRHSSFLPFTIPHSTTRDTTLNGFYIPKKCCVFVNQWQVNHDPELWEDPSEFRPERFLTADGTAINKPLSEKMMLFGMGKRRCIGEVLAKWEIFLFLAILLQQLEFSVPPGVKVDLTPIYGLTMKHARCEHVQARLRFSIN
Method: (§1) Experimental Example 6: CYP Enzyme Inhibition Test CYP450 is the most important enzyme system in drug metabolism. The enzymes involved in metabolism interact with drugs, and the most important ones are CYP1A2, CYP2D6 and CYP3A4. P450-Glo™ CYP1A2 Screening System, Vivid® CYP2D6 Cyan Screening Kit and Vivid® CYP3A4 Red Screening Kit were used in this test, and the inhibitory effects of the compounds on CYP1A2, CYP2D6 and CYP3A4 were determined according to the instructions of the kit.

[3] = target: T3, CYP3A4 (Homo sapiens, UniProt P08684); experiment: CYP enzyme inhibition test, Vivid CYP3A4 Red Screening Kit; type: in vitro ADME; conditions: for inhibitory effect on CYP3A4: conclusion in words
T3 construct: purchased
T3 sequence (P08684 whole entry): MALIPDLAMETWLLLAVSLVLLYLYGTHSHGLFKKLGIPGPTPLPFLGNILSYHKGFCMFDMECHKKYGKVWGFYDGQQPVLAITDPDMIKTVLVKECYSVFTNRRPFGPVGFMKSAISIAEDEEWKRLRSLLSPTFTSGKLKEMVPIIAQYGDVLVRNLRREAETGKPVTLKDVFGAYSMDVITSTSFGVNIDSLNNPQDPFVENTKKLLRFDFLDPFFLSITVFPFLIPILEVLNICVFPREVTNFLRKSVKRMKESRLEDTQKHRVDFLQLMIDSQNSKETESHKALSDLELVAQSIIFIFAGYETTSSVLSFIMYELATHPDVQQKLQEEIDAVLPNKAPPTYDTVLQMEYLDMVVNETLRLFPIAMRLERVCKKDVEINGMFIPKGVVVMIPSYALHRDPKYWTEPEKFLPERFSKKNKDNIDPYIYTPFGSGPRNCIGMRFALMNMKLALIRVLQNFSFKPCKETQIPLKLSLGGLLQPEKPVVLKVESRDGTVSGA
Method: as §1

[4] = target: T4, CYP2D6 (Homo sapiens, UniProt P10635); experiment: CYP enzyme inhibition test, Vivid CYP2D6 Cyan Screening Kit; type: in vitro ADME; conditions: for inhibitory effect on CYP2D6: conclusion in words
T4 construct: purchased
T4 sequence (P10635 whole entry): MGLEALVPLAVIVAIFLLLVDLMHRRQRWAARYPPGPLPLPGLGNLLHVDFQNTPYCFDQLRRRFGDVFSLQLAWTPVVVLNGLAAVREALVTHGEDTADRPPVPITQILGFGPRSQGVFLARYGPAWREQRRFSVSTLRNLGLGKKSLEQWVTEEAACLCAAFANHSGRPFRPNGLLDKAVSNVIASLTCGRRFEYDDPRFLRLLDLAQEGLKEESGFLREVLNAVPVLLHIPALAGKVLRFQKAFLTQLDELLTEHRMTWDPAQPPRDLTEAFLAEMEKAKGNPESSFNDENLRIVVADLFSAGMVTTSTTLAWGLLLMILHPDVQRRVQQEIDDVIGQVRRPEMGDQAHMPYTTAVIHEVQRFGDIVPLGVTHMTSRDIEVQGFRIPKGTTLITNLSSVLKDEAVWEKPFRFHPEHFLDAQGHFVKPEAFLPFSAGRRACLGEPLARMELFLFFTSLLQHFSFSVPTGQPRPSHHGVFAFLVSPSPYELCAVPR
Method: as §1

[5] = target: T5, hERG potassium channel (Homo sapiens, UniProt Q12809); experiment: in vitro
T5 sequence (Q12809 whole entry): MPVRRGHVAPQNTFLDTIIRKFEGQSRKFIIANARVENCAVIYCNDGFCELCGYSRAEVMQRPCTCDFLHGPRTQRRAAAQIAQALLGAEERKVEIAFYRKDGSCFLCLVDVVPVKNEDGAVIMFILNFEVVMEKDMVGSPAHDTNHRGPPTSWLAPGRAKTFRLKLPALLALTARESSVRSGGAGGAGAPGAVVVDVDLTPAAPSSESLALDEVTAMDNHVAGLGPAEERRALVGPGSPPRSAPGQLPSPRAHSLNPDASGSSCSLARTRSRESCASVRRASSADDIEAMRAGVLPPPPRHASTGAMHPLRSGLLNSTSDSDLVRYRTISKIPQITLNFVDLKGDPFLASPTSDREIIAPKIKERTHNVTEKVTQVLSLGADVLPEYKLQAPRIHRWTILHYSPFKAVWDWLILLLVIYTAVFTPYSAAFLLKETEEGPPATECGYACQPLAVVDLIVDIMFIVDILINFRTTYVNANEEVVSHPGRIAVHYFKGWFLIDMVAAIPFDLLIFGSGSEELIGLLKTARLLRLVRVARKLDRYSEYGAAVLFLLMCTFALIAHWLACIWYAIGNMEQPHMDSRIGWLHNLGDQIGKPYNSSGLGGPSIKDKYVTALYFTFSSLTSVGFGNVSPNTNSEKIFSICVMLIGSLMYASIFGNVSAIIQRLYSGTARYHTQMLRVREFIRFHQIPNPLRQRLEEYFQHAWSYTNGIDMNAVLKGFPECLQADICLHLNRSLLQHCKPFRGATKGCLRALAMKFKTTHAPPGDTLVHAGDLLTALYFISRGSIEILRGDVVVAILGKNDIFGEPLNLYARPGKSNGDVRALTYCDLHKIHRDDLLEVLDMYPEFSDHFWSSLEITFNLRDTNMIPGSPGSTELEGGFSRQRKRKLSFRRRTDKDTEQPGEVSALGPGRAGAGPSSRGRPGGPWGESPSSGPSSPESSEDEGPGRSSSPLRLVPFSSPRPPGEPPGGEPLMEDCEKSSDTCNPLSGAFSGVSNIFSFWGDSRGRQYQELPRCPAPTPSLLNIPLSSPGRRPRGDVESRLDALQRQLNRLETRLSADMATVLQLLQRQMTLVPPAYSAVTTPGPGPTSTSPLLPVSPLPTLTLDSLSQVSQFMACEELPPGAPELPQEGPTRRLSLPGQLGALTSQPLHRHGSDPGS

[6] = target: T5, hERG potassium channel
[7] = target: T5, hERG potassium channel; experiment: cell-based

T1 sequence (Q96P20 whole entry): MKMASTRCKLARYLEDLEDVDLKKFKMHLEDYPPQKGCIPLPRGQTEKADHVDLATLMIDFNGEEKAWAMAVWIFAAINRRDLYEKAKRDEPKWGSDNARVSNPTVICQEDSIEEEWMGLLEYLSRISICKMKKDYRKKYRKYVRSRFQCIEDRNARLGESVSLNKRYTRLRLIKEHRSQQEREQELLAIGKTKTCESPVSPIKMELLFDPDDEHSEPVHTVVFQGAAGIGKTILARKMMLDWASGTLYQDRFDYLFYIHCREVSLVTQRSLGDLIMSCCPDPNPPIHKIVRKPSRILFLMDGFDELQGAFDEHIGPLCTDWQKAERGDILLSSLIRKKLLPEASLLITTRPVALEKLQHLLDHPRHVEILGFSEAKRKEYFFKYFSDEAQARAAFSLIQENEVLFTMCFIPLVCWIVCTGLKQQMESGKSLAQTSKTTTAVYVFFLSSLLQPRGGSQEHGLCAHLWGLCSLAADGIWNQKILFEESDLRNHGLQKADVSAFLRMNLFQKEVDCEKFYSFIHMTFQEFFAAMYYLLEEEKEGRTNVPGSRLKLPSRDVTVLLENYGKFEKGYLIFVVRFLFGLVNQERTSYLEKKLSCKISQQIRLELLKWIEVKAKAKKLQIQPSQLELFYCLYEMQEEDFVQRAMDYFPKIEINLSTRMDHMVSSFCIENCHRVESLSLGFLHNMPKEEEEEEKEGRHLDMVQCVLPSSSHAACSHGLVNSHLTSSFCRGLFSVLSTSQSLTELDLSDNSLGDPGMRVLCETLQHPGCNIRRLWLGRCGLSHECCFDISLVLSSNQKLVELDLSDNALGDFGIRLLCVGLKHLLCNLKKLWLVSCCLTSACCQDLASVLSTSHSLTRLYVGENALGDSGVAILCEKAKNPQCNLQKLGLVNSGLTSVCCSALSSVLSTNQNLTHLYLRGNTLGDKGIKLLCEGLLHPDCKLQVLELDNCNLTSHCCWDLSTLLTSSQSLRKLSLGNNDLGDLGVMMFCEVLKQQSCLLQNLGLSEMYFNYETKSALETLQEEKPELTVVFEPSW

| Compound | EC50 [1] | also measured |
| --- | --- | --- |
| Nc1cc(N[C@@H]2CC[C@H](O)C2)c2sc(-c3ccn[nH]3)cc2n1 [Compound 31, (1S,3R)-3-((5-amino-2-(1H-pyrazol-5-yl)thieno[3,2-b]pyridin-7-yl)amino)cyclopentanol] | 0.11 µM | IC50 [2]: > 10 µM; inhibitory effect on CYP1A2 [2]: no apparent inhibitory effects; IC50 [3]: > 10 µM; inhibitory effect on CYP3A4 [3]: no apparent inhibitory effects; IC50 [4]: > 10 µM; inhibitory effect on CYP2D6 [4]: no apparent inhibitory effects |
| COCCNc1cc(N)nc2cc(-c3ccn[nH]3)sc12 [Compound 100, N^7-(2-methoxyethyl)-2-(1H-pyrazol-5-yl)thieno[3,2-b]pyridine-5,7-diamine] | 0.03 µM | inhibition at 10 μM [5]: 5.42 ± 2.2%; inhibitory effect on hERG [6]: no apparent inhibitory effect; IC50 [7]: > 10000 nM |
| CCC(CC)Nc1cc(N)nc2cc(-c3ccn[nH]3)sc12 [Compound 113, N^7-(pent-3-yl)-2-(1H-pyrazol-5-yl)thieno[3,2-b]pyridine-5,7-diamine] | 0.03 µM | – |
| Nc1cc(NC2CCC(O)CC2)c2sc(-c3ccn[nH]3)cc2n1 (centres unmarked) [Compound 114, 4-((5-amino-2-(1H-pyrazol-5-yl)thieno[3,2-b]pyridin-7-yl)amino)-1-cyclohexanol] | 0.06 µM | IC50 [2]: > 10 µM; inhibitory effect on CYP1A2 [2]: no apparent inhibitory effects; IC50 [3]: > 10 µM; inhibitory effect on CYP3A4 [3]: no apparent inhibitory effects; IC50 [4]: > 10 µM; inhibitory effect on CYP2D6 [4]: no apparent inhibitory effects |
| CC(C)(CO)CNc1cc(N)nc2cc(-c3ccn[nH]3)sc12 [Compound 115, 3-((5-amino-2-(1H-pyrazol-5-yl)thieno[3,2-b]pyridin-7-yl)amino)-2,2-dimethyl-1-propanol] | 0.04 µM | inhibition at 10 μM [5]: 8.26 ± 3.66%; inhibitory effect on hERG [6]: no apparent inhibitory effect; IC50 [7]: > 10000 nM; IC50 [2]: > 10 µM; inhibitory effect on CYP1A2 [2]: no apparent inhibitory effects; IC50 [3]: > 10 µM; inhibitory effect on CYP3A4 [3]: no apparent inhibitory effects; IC50 [4]: > 10 µM; inhibitory effect on CYP2D6 [4]: no apparent inhibitory effects |
| Nc1cc(NCC(F)F)c2sc(-c3ccn[nH]3)cc2n1 [Compound 116, N^7-(2,2-difluoroethyl)-2-(1H-pyrazol-5-yl)thieno[3,2-b]pyridine-5,7-diamine] | 0.03 µM | inhibition at 10 μM [5]: 18.5 ± 4.98%; inhibitory effect on hERG [6]: no apparent inhibitory effect; IC50 [7]: > 10000 nM |
| C[C@@H]1CN(CCNc2cc(N)nc3cc(-c4ccn[nH]4)sc23)C[C@H](C)O1 [Compound 117, N^7-(2-((2S,6R)-2,6-dimethylmorpholino)ethyl)-2-(1H-pyrazol-5-yl)thieno[3,2-b]pyridine-5,7-diamine] | 0.27 µM | – |
| N#CC1(CNc2cc(N)nc3cc(-c4ccn[nH]4)sc23)CC1 [Compound 119] | 0.01 µM | – |
| Nc1cc(NCC2CCOCC2)c2sc(-c3ccn[nH]3)cc2n1 [Compound 120, 2-(1H-pyrazol-5-yl)-N^7-((tetrahydro-2H-pyran-4-yl)methyl)thieno[3,2-b]pyridine-5,7-diamine] | 0.05 µM | inhibition at 10 μM [5]: 11.7 ± 0.7%; inhibitory effect on hERG [6]: no apparent inhibitory effect; IC50 [7]: > 10000 nM |
| CC1(CNc2cc(N)nc3cc(-c4ccn[nH]4)sc23)COC1 [Compound 121, N^7-((3-methyloxetan-3-yl)methyl)-2-(1H-pyrazol-5-yl)thieno[3,2-b]pyridine-5,7-diamine] | 0.03 µM | – |
| CC(CO)(CO)CNc1cc(N)nc2cc(-c3ccn[nH]3)sc12 [Compound 122] | 0.6 µM | – |
| Cc1c(-c2cc[nH]n2)sc2c(NCCN3CCOCC3)cc(N)nc12 [Compound 153] | 4.29 µM | – |
| Cc1c(-c2cc[nH]n2)sc2c(NCC3CC3)cc(N)nc12 [Compound 156] | 5.01 µM | – |
| Cc1c(-c2ccn[nH]2)sc2c(NC[C@@H]3CCCO3)cc(N)nc12 [Compound 157] | 3.47 µM | – |
| Cc1c(-c2cc[nH]n2)sc2c(NCCCO)cc(N)nc12 [Compound 159] | 1.29 µM | – |
| Nc1cc(N2CCN(C3CCCC3)CC2)c2sc(-c3ccn[nH]3)cc2n1 [Compound 160] | 0.11 µM | – |
| CN1CCN(c2cc(N)nc3cc(-c4ccn[nH]4)sc23)CC1 [Compound 161] | 0.18 µM | – |
| CC(C)N1CCN(c2cc(N)nc3cc(-c4ccn[nH]4)sc23)CC1 [Compound 162] | 0.01 µM | – |
| Nc1cc(N2CCN(C3CC3)CC2)c2sc(-c3ccn[nH]3)cc2n1 [Compound 163] | 0.27 µM | – |

| Compound | EC50 [1] | also measured |
| --- | --- | --- |
| CS(=O)(=O)N1CCN(c2cc(N)nc3cc(-c4ccn[nH]4)sc23)CC1 [Compound 164] | 0.006 µM | – |
| COC1(C)CCN(c2cc(N)nc3cc(-c4ccn[nH]4)sc23)CC1 [Compound 165] | 0.03 µM | – |
| Nc1cc(N2CCCC(O)C2)c2sc(-c3ccn[nH]3)cc2n1 (centres unmarked) [Compound 166] | 0.34 µM | – |
| Nc1cc(N2CCN(C3CCCCC3)CC2)c2sc(-c3ccn[nH]3)cc2n1 [Compound 167] | 0.01 µM | – |
| C[C@H]1CN(c2cc(N)nc3cc(-c4ccn[nH]4)sc23)C[C@H](C)O1 [Compound 168] | 0.01 µM | – |
| C[C@@H]1CN(c2cc(N)nc3cc(-c4ccn[nH]4)sc23)C[C@H](C)O1 [Compound 169] | 0.01 µM | – |
| Nc1cc(N2CCOCC2)c2sc(-c3ccn[nH]3)cc2n1 [Compound 170] | 0.02 µM | – |
| CC1(C)CN(c2cc(N)nc3cc(-c4ccn[nH]4)sc23)CCO1 [Compound 171] | 0.03 µM | – |
| Nc1cc(N2CCC(O)CC2)c2sc(-c3ccn[nH]3)cc2n1 [Compound 172] | 0.03 µM | – |
| CC1(C)CCN(c2cc(N)nc3cc(-c4ccn[nH]4)sc23)CC1 [Compound 173] | 0.1 µM | – |
| Nc1cc(N2CCN(c3ccccc3)CC2)c2sc(-c3ccn[nH]3)cc2n1 [Compound 174] | 0.34 µM | – |
| Nc1cc(N2CCNCC2)c2sc(-c3ccn[nH]3)cc2n1 [Compound 175] | 0.34 µM | – |
| Nc1cc(N2CC3CC(C2)N3)c2sc(-c3ccn[nH]3)cc2n1 [Compound 176] | 0.23 µM | – |
| C[C@@H]1COCCN1c1cc(N)nc2cc(-c3ccn[nH]3)sc12 [Compound 177] | 0.03 µM | – |
| Nc1cc(N2CCN(C=O)CC2)c2sc(-c3ccn[nH]3)cc2n1 [Compound 178] | 0.17 µM | – |
| Nc1cc(N2CC3CC(C2)N3C=O)c2sc(-c3ccn[nH]3)cc2n1 [Compound 179] | 0.05 µM | – |
| COC1CCN(c2cc(N)nc3cc(-c4ccn[nH]4)sc23)C1 (centres unmarked) [Compound 180] | 0.01 µM | – |
| Nc1cc(N2CC[C@@H](O)C2)c2sc(-c3ccn[nH]3)cc2n1 [Compound 181] | 0.009 µM | – |
| Nc1cc(N[C@H]2C[C@H]2CO)c2sc(-c3ccn[nH]3)cc2n1 [Compound 182s] | 0.11 µM | – |
